Reference: paper PMC3479139, “Diverse Small Molecule Inhibitors of Human Apurinic/Apyrimidinic Endonuclease APE1 Identified from a Screen of a Large Public Collection” (PLoS ONE, 2012)

What was measured:
[1] = biological target: T1, APE1 (Homo sapiens, UniProt P27695); test: Fluorogenic kinetic qHTS APE1 incision assay (primary screen and retest of cherrypicked samples); format: biochemical;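 note: purified APE1 cleaving a fluorophore/dark-quencher labelled 17-mer duplex DNA bearing a tetrahydrofuran AP site, fluorescence rise followed kinetically over the first 2 min, inhibition normalized to controls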
T1 construct: made in house
T1 sequence (P27695 whole entry): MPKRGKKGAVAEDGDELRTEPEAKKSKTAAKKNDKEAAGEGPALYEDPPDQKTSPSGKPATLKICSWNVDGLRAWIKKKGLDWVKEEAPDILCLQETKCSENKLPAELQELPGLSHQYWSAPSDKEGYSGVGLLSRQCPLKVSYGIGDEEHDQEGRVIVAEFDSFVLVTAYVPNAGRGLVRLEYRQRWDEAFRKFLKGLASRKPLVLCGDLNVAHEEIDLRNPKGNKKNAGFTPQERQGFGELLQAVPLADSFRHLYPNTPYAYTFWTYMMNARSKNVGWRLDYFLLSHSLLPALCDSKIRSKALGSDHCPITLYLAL

[2] = biological target: T1, APE1; test: Gel-based APE1 incision assay with fluorescence (TAMRA) detection; format: biochemical
Protocol: To test the compounds’ inhibitory activity after the primary screen, two assays designed to monitor the cleavage of substrate to product through electrophoretic separation were utilized. The radiotracer incision assay, utilizing a ^32P-labeled substrate, was performed essentially as described [21], [31], [32]. Incision reactions utilizing ^32P-labeled substrate were carried out for 5 min at 37°C. After the addition of an equal volume of stop buffer (0.05% bromophenol blue and xylene cyanol, 20 mM EDTA, 95% formamide), the substrate and product were separated on a standard polyacrylamide denaturing gel and quantified by PhosphorImager analysis [32]. […] APE1 cleavage of the substrate results in a 18-mer TAMRA-labeled fragment which was separated by a non-denaturing polyacrylamide gel electrophoresis and quantitated in a Gel Doc XR imaging system, BioRad (Hercules, CA). The advantage of this assay is that it can be used in a relatively high throughput mode with the inhibitors tested at a range of concentrations (0.17 µM to 125 µM was used here). APE1 (0.15 nM) was added to a reaction mixture of 20 µL containing assay buffer (40 mM HEPES pH 7.5, 50 mM NaCl, 1 mM MgCl2 and 2 mM DTT), and labeled ds DNA substrate (final 75 nM). The mixture was incubated at RT for 15 min, and the reaction was stopped by the addition 20 µL of 2X dye stop solution (10% glycerol, 20 mM EDTA and bromophenol blue). Then 10 µL of the mixture was resolved on 20% polyacrylamide gel in 1X Tris-borate EDTA running buffer at 250 V for 40 min.
To eliminate false positive hits, all 595 confirmed molecules were tested for their ability to inhibit APE1 incision activity using biochemical assays that involve electrophoretic separation of the substrate and cleavage product.

[3] = biological target: T1, APE1; test: Fluorescence polarization (FP) displacement assay of APE1 binding to AP-DNA probe; conditions: read-out: FP IC50;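 note: TAMRA 5′-labeled duplex DNA with THF abasic site (5 nM) and APE1 (20 nM), Mg2+-free buffer, 15 min at room temperature, inhibition seen as lowered polarization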
[4] = biological target: double-stranded 17-mer DNA fragment; test: ThO (Thiazole Orange) DNA displacement assay; format: binding; conditions: read-out: ThO-DNA binding IC50;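 note: miniaturized displacement of the intercalating dye from unlabeled duplex DNA, used to flag nonspecific DNA binders, chiefly intercalators, groove binders may be missed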
Description: The double-stranded 17-mer DNA fragment used in the ThO DNA binding assay was of the same sequence as the fluorogenic HTS substrate but carried no dye labels.
(§1) In order to screen out nonselective compounds, such as non-specific DNA binders and inhibitors of related enzymes, we used a miniaturized ThO DNA displacement assay and a counterscreen against the bacterial endonuclease E. coli Endo IV, respectively, following the previously published protocols [21].
To detect screening hits that inhibit APE1 activity through non-specific DNA interactions, we employed a previously established miniaturized ThO dye displacement assay [21]. […] We note that the ThO assay reports primarily on DNA binders acting through intercalation, while potentially missing other types of DNA binders, such as those acting through the minor groove.

[5] = biological target: T2, E. coli Endo IV (Escherichia coli, UniProt P0A6C1); test: E. coli Endo IV profiling counterscreen; format: biochemical; conditions: read-out: EndoIV IC50;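 note: selectivity counterscreen of candidate APE1 inhibitors against the bacterial endonuclease Endo IV, run in the same assay format as the primary APE1 high-throughput screen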
T2 construct: made in house
Description: as §1
To probe the selectivity of the candidate APE1 inhibitors, we tested them against E. coli EndoIV [36], employing the same assay as used in the HTS.

[6] = initial quantitative high-throughput screen, read-out: APE1 qHTS IC50
[7] = retest of cherrypicked sample, read-out: APE1 Retest IC50
[8] = estimated IC50, fluorophore detection, entries 113-223, read-out: F-PAGE Assay IC50
[9] = entries 113-223: fluorophore detection, estimated IC50, read-out: Gel-based electrophoretic separation assay with fluorophore detection, estimated IC50 (column headed Radiotracer Assay (%Activity))

Structure (SMILES)	IC50 [1, 6]	IC50 [1, 7]	IC50 [2, 8]	IC50 [3]	IC50 [4]	IC50 [5]	IC50 [2, 9]
Cc1ccc(C)c(NC(=O)CN(C)C(=O)c2cccc(-n3cccc3)c2)c1 [MLS001161412]	3 µM	5.8 µM	2.8 µM	12.9 µM	> 57 µM	16.2 µM	
COc1ccc(S(=O)(=O)N2CCOCC2)cc1NC(=O)c1cccc(-n2cccc2)c1 [MLS001161521]	3.8 µM	7.3 µM	4.5 µM	> 57 µM	> 57 µM	> 57 µM	
NS(=O)(=O)c1cccc(NC(=O)c2ccc3nc[nH]c3c2)c1 [MLS001177378]	26.7 µM	45.7 µM		> 57 µM	32.4 µM	> 57 µM	12.6 µM
CCOC(=O)C1=C(C)N=c2s/c(=C\c3ccc(OCC(=O)O)cc3)c(=O)n2C1c1ccc(Cl)cc1 (centres unmarked) [MLS001178472]	10.6 µM	14.5 µM		> 57 µM	> 57 µM	> 57 µM	11.2 µM
CC1=C(C(=O)OC(C)C)C(c2ccc(Cl)cc2)n2c(s/c(=C\c3ccc(OCC(=O)O)cc3)c2=O)=N1 (centres unmarked) [MLS001178474]	6.7 µM	5.1 µM	1.4 µM	> 57 µM	10.2 µM	> 57 µM	
O=C(Nc1ccc2oc(-c3ccccc3F)nc2c1)c1ccc([N+](=O)[O-])o1 [MLS001194759]	2.7 µM	3.2 µM	2.5 µM	> 57 µM	10.2 µM	> 57 µM	
Nc1c(S(=O)(=O)O)cc(NC(=O)c2ccccc2)c2c1C(=O)c1ccccc1C2=O [MLS001194971]	21.2 µM	18.2 µM	7.9 µM	> 57 µM	> 57 µM	> 57 µM	
c1ccc2c(NCCc3c[nH]c4ccccc34)c3ccccc3nc2c1 [MLS001195935]	18.9 µM	18.2 µM		> 57 µM	32.4 µM	> 57 µM	25.1 µM
O=C(O)c1ccc(-c2ccc(/C=c3/sc4nc5ccccc5n4c3=O)o2)cc1Cl [MLS001196440]	9.5 µM	7.3 µM	7.1 µM	> 57 µM	40.8 µM	> 57 µM	
COc1ccc(Cl)cc1NC(=O)CCS(=O)(=O)c1ccc(Br)cc1 [MLS001202289]	11.9 µM	45.7 µM		> 57 µM	45.7 µM	> 57 µM	12.6 µM
COC(=O)c1cc(NC(=O)Cc2cccs2)cc(C(=O)OC)c1 [MLS001211293]	13.4 µM		7.1 µM	> 57 µM	> 57 µM	> 57 µM	
COc1ccccc1N(CC(=O)NCc1ccco1)S(=O)(=O)c1ccc(C)cc1 [MLS001219746]	21.2 µM	16.2 µM	8.9 µM	> 57 µM	> 57 µM	> 57 µM	
NS(=O)(=O)c1cc(C(=O)NC2CCSc3ccccc32)ccc1Cl (centres unmarked) [MLS001233727]	0.1 µM	0.3 µM	0.1 µM	> 57 µM	> 57 µM	> 57 µM	
CCNc1nc(NCC)n2c(SCC(=O)Nc3cccc(F)c3)nnc2n1 [MLS001234358]	11.9 µM	11.5 µM	5 µM	18.2 µM	> 57 µM	36.3 µM	11.2 µM
CCNc1nc(NCC)n2c(SCC(=O)Nc3ccc(OC(F)F)cc3)nnc2n1 [MLS001234379]	10.6 µM	11.5 µM	7.1 µM	> 57 µM	> 57 µM	> 57 µM	
CCNc1nc(NCC)n2c(SCC(=O)Nc3ccccc3C(F)(F)F)nnc2n1 [MLS001234389]	21.2 µM	12.9 µM		> 57 µM	> 57 µM	> 57 µM	14.1 µM
O=C(CSc1nnc(CNC(=O)c2c(F)cccc2F)o1)NCc1ccco1 [MLS001235900]	10.6 µM	45.7 µM		18.2 µM	> 57 µM	> 57 µM	12.6 µM
COc1ccc(OCCOc2ccc(/C=C3\C(=N)N4N=C(C)SC4=NC3=O)cc2)cc1 [MLS001359901]	9.5 µM	5.8 µM		> 57 µM	> 57 µM	> 57 µM	10 µM
O=C(O)C1CCCCC1C(=O)Nc1cccc(Br)c1 (centres unmarked) [MLS002152987]	0.5 µM	5.1 µM	0.9 µM	> 57 µM	> 57 µM	> 57 µM	
COc1ccc(NC(=O)COC(=O)c2cc3c(s2)CCC3)cc1 [MLS002159150]	5.3 µM	11.5 µM	7.1 µM	36.3 µM	> 57 µM	> 57 µM	

Structure (SMILES)	IC50 [1, 6]	IC50 [1, 7]	IC50 [2, 8]	IC50 [3]	IC50 [4]	IC50 [5]	IC50 [2, 9]
Cc1ccc(NC(=O)C(c2ccccc2)N2CCN(CC(=O)N3CCOCC3)CC2)cc1Cl (centres unmarked) [MLS002162303]	10.6 µM	9.1 µM	3.5 µM	> 57 µM	> 57 µM	> 57 µM	
O=C(NC1CC1)C1CCN(S(=O)(=O)c2cc([N+](=O)[O-])ccc2Cl)CC1 [MLS002162311]	10.6 µM	32.4 µM	8.9 µM	> 57 µM	36.3 µM	> 57 µM	
O=C(CSc1nnc(Nc2ccccc2F)s1)NC(=O)CN1CCCC1=O [MLS002163634]	10.6 µM	10.2 µM	8.9 µM	18.2 µM	> 57 µM	> 57 µM	
COc1ccc(NC(=O)c2cc(-c3ccco3)nc3ccccc23)cn1 [MLS002164354]	11.9 µM	14.5 µM	7.1 µM	36.3 µM	> 57 µM	22.9 µM	
CCOc1ccc(NC(=O)c2cccc(-n3cccc3)c2)cc1S(=O)(=O)N1CCOCC1 [MLS002164959]	1.3 µM	11.5 µM	2.8 µM	> 57 µM	> 57 µM	> 57 µM	
NS(=O)(=O)c1ccc(NC(=O)CSc2nnc(NC3CC3)s2)cc1 [MLS002169032]	10.6 µM	10.2 µM	6.3 µM	> 57 µM	> 57 µM	> 57 µM	
O=C(COC(=O)Cc1cccc(C(F)(F)F)c1)NCc1ccco1 [MLS002169571]	10.6 µM	45.7 µM	7.1 µM	> 57 µM	> 57 µM	> 57 µM	
COCCN(CC(=O)Nc1cccc(C)c1C)C(=O)c1cc2c(s1)CCC2 [MLS002170765]	15 µM	18.2 µM		> 57 µM	> 57 µM	> 57 µM	17.8 µM
O=C(COC(=O)c1ccccc1)Nc1ncc([N+](=O)[O-])s1 [MLS002171184]	3.4 µM	11.5 µM	1.6 µM	> 57 µM	32.4 µM	> 57 µM	
Nc1c(C(=O)OCC(=O)Nc2cccc([N+](=O)[O-])c2)[nH]c(=O)[nH]c1=O [MLS002171489]	8.4 µM	16.2 µM	7.9 µM	> 57 µM	> 57 µM	> 57 µM	
Cc1sc2ncnc(SCC(=O)Nc3ncccc3O)c2c1C [MLS002181609]	29.9 µM	10.2 µM		20.4 µM	> 57 µM	> 57 µM	14.1 µM
C=CC1=C(C(=O)O)N2C(=O)[C@@H](NC(=O)/C(=N\OCC(=O)O)c3csc(N)n3)[C@H]2SC1 [MLS002222332]	11.9 µM		2.8 µM	> 57 µM	> 57 µM	> 57 µM	
CCOC(=O)C1CCCN(C(=O)c2cc(-c3ccco3)nc3ccccc23)C1 (centres unmarked) [MLS002245402]	8.4 µM	18.2 µM	4 µM	> 57 µM	32.4 µM	> 57 µM	
CCOc1ccc(NC(=O)CN(C)C(=O)C2COc3ccccc3O2)cc1OCC (centres unmarked) [MLS002248300]	21.2 µM	32.4 µM		> 57 µM	> 57 µM	> 57 µM	20 µM
COc1ccc(S(=O)(=O)N2CCN(C(=O)c3cc4c(s3)CCC4)CC2)cc1 [MLS002248682]	2.7 µM	8.1 µM	2 µM	> 57 µM	> 57 µM	> 57 µM	
NC(=O)c1ccc(NC(=O)COC(=O)c2cc3c(s2)CCC3)cc1 [MLS002251079]	3 µM	12.9 µM	3.5 µM	18.2 µM	> 57 µM	> 57 µM	
CC(=O)c1cccc(OCC(=O)N(C)CC(=O)NCc2ccco2)c1 [MLS002251323]	9.5 µM	9.1 µM	4 µM	> 57 µM	> 57 µM	> 57 µM	
COc1ccc(S(=O)(=O)NCCC(=O)NC2CCCCC2C)cc1[N+](=O)[O-] (centres unmarked) [MLS002251710]	26.7 µM	16.2 µM		20.4 µM	> 57 µM	> 57 µM	11.2 µM
CC1(C)CC2CC(C)(CN2C(=O)COC(=O)c2ccc(O)cc2O)C1 (centres unmarked) [MLS002251953]	10.6 µM	14.5 µM		> 57 µM	> 57 µM	> 57 µM	15.8 µM
